Measurements reported in US20090082333A1, “REMEDY FOR XANTHOMA” (NATIONAL UNIVERSITY CORPORATION KOBE UNIVERSITY, priority 2005, published 2009).

Test system: WHHLMI rabbit
Assay: Xanthomatosis-inhibiting activity in rabbit model (extent of limb xanthoma at digital joints)
Type: in vivo
Details: male WHHLMI rabbit, digital joints of forelegs and hind legs; for Distribution of Severity: − (no occurrence), count of limb xanthoma assessments: control 2; for Distribution of Severity: +++ (mass), count of limb xanthoma assessments: control 4; for Distribution of Severity: + (dotting of granule), count of limb xanthoma assessments: control 8; for Distribution of Severity: ++ (scattering), count of limb xanthoma assessments: control 26
Method: A vehicle or the test compound 1 was orally administered to a 2 months old male WHHLMI rabbit (10 to 11 animals/group) in an amount of 100, 200 mg/kg in a mixed diet for 32 weeks. After the administration for 32 weeks, xanthoma was evaluated at the digital joints of forelegs and hind legs (Table 1). The extent of limb xanthoma was assessed by classifying into four stages: no occurrence (−), dotting of granule (+), scattering (++), mass (+++)

[1] = 100 mg/kg orally in mixed diet for 32 weeks
[2] = 200 mg/kg orally in mixed diet for 32 weeks

COc1cccc([C@H]2O[C@H](CC(=O)N3CCC(CC(=O)O)CC3)C(=O)N(CC(C)(C)COC(C)=O)c3ccc(Cl)cc32)c1OC [Test compound 1, N-{[(3R,5S)-1-(3-acetoxy-2,2-dimethylpropyl)-7-chloro-5-(2,3-dimethoxyphenyl)-2-oxo-1,2,3,5-tetrahydro-4,1-benzoxazepin-3-yl}acetyl}piperidine-4-acetic acid]
Distribution of Severity: − (no occurrence), count of limb xanthoma assessments [1]: 4
Distribution of Severity: +++ (mass), count of limb xanthoma assessments [1]: 0
Distribution of Severity: + (dotting of granule), count of limb xanthoma assessments [1]: 13
Distribution of Severity: ++ (scattering), count of limb xanthoma assessments [1]: 27
Distribution of Severity: − (no occurrence), count of limb xanthoma assessments [2]: 0
Distribution of Severity: +++ (mass), count of limb xanthoma assessments [2]: 0
Distribution of Severity: + (dotting of granule), count of limb xanthoma assessments [2]: 29
Distribution of Severity: ++ (scattering), count of limb xanthoma assessments [2]: 15
